{
  "source": "patent US20240279600A1",
  "about": "“COMPOSITIONS AND METHODS FOR PROMOTING IN VITRO MATURATION OF CELLS” (MEMORIAL SLOAN-KETTERING CANCER CENTER, priority 2021, published 2024)",
  "format_in_all_cases": "cell-based, human",
  "key": {"[1]": {"system": "hPSC-derived cortical neurons", "experiment": "High-content maturity assay / chemical screen in hPSC-derived cortical neurons", "details": "for dose-response validation, mean of 4 maturity parameters normalized to DMSO (mean maturation score): 30 nM-10,000 nM, nuclear size and roundness, neurite length, KCl-induced FOS/EGR1+ cells; for number of cells (cell viability / neuron survival): with respect to DMSO, treatment days 7-14, day 21", "text": "The phenotypic complexity of neurons makes single-readout assays unsuitable to fully capture maturation stages. Therefore, a multi-phenotype approach (via high-content screening, HCS) (Boutros M., Heigwer F. & Laufer C. Cell vol. 163 1314-1325 (2015)) was used to design an assay that simultaneously monitors distinct features of neuronal maturation (FIG. 1A). Dendritic outgrowth is a widely used parameter of neuron maturity (Wu, G. Y. et al., J. Neurosci. 19, 4472-4483 (1999)) and can be monitored through automated tracing of microtubule-associated protein 2 (MAP2) immunostaining (FIGS. 1B and 1C). Changes in nuclear size and morphology are also characteristic of neuron development and maturation (Ito K. & Takizawa T., Frontiers in Genetics vol. 9 (2018)) and can be tracked via DAPI counterstaining (FIGS. 1B and 1C). As an indirect measurement of neuronal function and excitability, the nuclear expression of immediate early gene (IEG) products FOS and EGR1 were quantified following 2 hours of potassium chloride (KCl) stimulation (FIGS. 1B and 1D). IEGs are defined by their rapid induction in the absence of de-novo protein synthesis by stimuli that include sustained membrane depolarization in neurons (Sheng M. & Greenberg M. E., Neuron vol. 4 477-485 (1990)). In contrast to more traditional measures of neuronal activity such as calcium imaging and electrophysiology, IEG immunoreactivity is readily scalable as a readout for thousands of treatment conditions. However, IEGs can be triggered by stimuli other than neuronal activity including growth factor signaling (Greenberg M. E. & Ziff E. B., Nature 311, 433-438 (1984)) and cellular stress responses (Murai J. et al., Cell Rep. 30, 4137-4151.e6 (2020)). Therefore, to avoid direct activation of IEGs, transient compound treatment (day 7-14) was used and all measurements were performed after rinsing of compounds followed by culture in compound-free medium for an additional 7 days (day 14-21) prior to analysis (FIG. 1A). Furthermore, IEGs under both basal and KCl-stimulated conditions were recorded to specifically determine the depolarization-induced signal by subtracting baseline from KCl-induced responses. Measuring maturation readouts only after compound withdrawal enabled the identification of compounds that trigger a long-lasting “memory” of a maturation stimulus even after compound removal.\nThe present maturity assay was then applied to screen a library of 2688 bioactive compounds in hPSC-derived cortical neurons (FIG. 6A). The library was applied at 5 μM and standard scores (z-scores) of duplicate screen runs were averaged for analysis. Viability was determined by quantifying intact nuclei, and 325 toxic compounds with a z-score below −2 were excluded from further analysis (FIG. 6B). For HCS hit selection, principal component analysis (PCA) was applied to 6 maturity z-scores to identify patterns of distribution among compounds, avoiding single threshold hit discrimination (Singh S. et al., Journal of Biomolecular Screening vol. 19 640-650 (2014)) (FIG. 1E, left panel). The 6 parameters were: nuclear size and roundness, total neurite length and branching (number of segments per cell), and fractions of KCl-induced FOS+ and EGR1+ cells. Three phenotypic clusters of compounds were identified by PCA: maturation enhancers (hits); maturation suppressors, consisting mostly of inhibitors of the PI3K/AKT/mTOR axis; and inducers of non-neuronal contaminant proliferation, which were highly enriched in TGF-β signaling inhibitors as well as inhibitors of rho-associated protein kinase (ROCK) and other signaling pathways (FIG. 1E, right panel).\nA bioactive compound library containing 2688 compounds was used for screening at a concentration of 5 μM (Selleck Bioactive Library, Selleck Chemicals). 192 DMSO wells contained within the library were used as negative controls. […]"}, "[2]": {"system": "hPSC-derived cortical neurons from treated NPC", "experiment": "Western blot for maturation markers after transient inhibition of chromatin regulators in NPC", "details": "NPC treated d12 to d20, neurons analysed d35, versus DMSO"}, "[3]": {"system": "hPSC-derived cortical neurons from treated NPC", "experiment": "Ca2+ imaging (GCaMP6m) after transient inhibition of chromatin regulators in NPC", "details": "NPC treated d12 to d20, imaging d40, versus DMSO"}},
  "note": "Entries after “also recorded” stand apart in the source; their conditions may differ.",
  "data": [
    {"smiles": "COC(=O)C1=C(C)NC(C)=C([N+](=O)[O-])C1c1ccccc1C(F)(F)F", "note": "(stereo not drawn) [Bay K 8644, methyl 2,6-dimethyl-5-nitro-4-[2-(trifluoromethyl)phenyl]-1,4-dihydropyridine-3-carboxylate]", "values": [
      {"measurement": "dose-response validation, mean of 4 maturity parameters normalized to DMSO (mean maturation score)", "setting": "[1]", "value": "confirmed hits"},
      {"measurement": "number of cells (cell viability / neuron survival)", "setting": "[1]", "value": "did not significantly affect neuron survival"}
    ]},
    {"smiles": "CC(C)N(CCCNC(=O)Nc1ccc(C(C)(C)C)cc1)C[C@H]1O[C@@H](n2ccc3c(N)ncnc32)[C@H](O)[C@@H]1O", "note": "[EPZ004777, 1-[3-[[(2R,3S,4R,5R)-5-(4-aminopyrrolo[2,3-d]pyrimidin-7-yl)-3,4-dihydroxyoxolan-2-yl]methyl-propan-2-ylamino]propyl]-3-(4-tert-butylphenyl)urea]", "values": [
      {"measurement": "expression of the maturation markers Nefh and Stx1a", "setting": "[2]", "value": "robust increased expression"},
      {"measurement": "synchronicity of the neuronal network (synchronous firing rate)", "setting": "[3]", "value": "modest functional enhancement with an increased synchronous firing rate"}
    ]},
    {"smiles": "CC(C)N(C[C@H]1O[C@@H](n2cnc3c(N)ncnc32)[C@H](O)[C@@H]1O)[C@H]1C[C@@H](CCc2nc3cc(C(C)(C)C)ccc3[nH]2)C1", "note": "[EPZ-5676, (2R,3R,4S,5R)-2-(6-aminopurin-9-yl)-5-[[[3-[2-(6-tert-butyl-1H-benzimidazol-2-yl)ethyl]cyclobutyl]-propan-2-ylamino]methyl]oxolane-3,4-dioland]", "values": [
      {"measurement": "dose-response validation, mean of 4 maturity parameters normalized to DMSO (mean maturation score)", "setting": "[1]", "value": "confirmed hits"},
      {"measurement": "number of cells (cell viability / neuron survival)", "setting": "[1]", "value": "did not significantly affect neuron survival"}
    ]},
    {"smiles": "CCCc1cc(C)[nH]c(=O)c1CNC(=O)c1cc(-c2ccnc(N3CCN(C)CC3)c2)cc2c1cnn2C(C)C", "note": "[GSK343, N-[(6-methyl-2-oxo-4-propyl-1H-pyridin-3-yl)methyl]-6-[2-(4-methylpiperazin-1-yl)pyridin-4-yl]-1-propan-2-ylindazole-4-carboxamide]", "values": [
      {"measurement": "expression of the maturation markers Nefh and Stx1a", "setting": "[2]", "value": "robust increased expression"},
      {"measurement": "amplitude of individual Ca2+ spikes", "setting": "[3]", "value": "marked and highly significant increase"},
      {"measurement": "frequency of individual Ca2+ spikes", "setting": "[3]", "value": "marked and highly significant increase"},
      {"measurement": "synchronicity of the neuronal network (synchronous firing rate)", "setting": "[3]", "value": "marked and highly significant increase"}
    ]},
    {"smiles": "O=C(O)c1ccc(CN2CCC(CN[C@@H]3C[C@H]3c3ccccc3)CC2)cc1", "note": "[GSK2879552, 4-[[4-[[[(1R,2S)-2-phenylcyclopropyl]amino]methyl]piperidin-1-yl]methyl]benzoic acid]", "values": [
      {"measurement": "dose-response validation, mean of 4 maturity parameters normalized to DMSO (mean maturation score)", "setting": "[1]", "value": "stronger combined effect than OG-L002; also recorded: confirmed hits"},
      {"measurement": "number of cells (cell viability / neuron survival)", "setting": "[1]", "value": "did not significantly affect neuron survival"}
    ]},
    {"smiles": "N[C@H]1C[C@@H]1c1ccc(-c2cccc(O)c2)cc1", "note": "[OG-L002]", "values": [
      {"measurement": "dose-response validation, mean of 4 maturity parameters normalized to DMSO (mean maturation score)", "setting": "[1]", "value": "confirmed hits"}
    ]},
    {"smiles": "COc1cc2c(NC3CCN(C(C)C)CC3)nc(C3CCCCC3)nc2cc1OCCCN1CCCC1", "note": "[UNC0638, 2-cyclohexyl-6-methoxy-N-(1-propan-2-ylpiperidin-4-yl)-7-(3-pyrrolidin-1-ylpropoxy)quinazolin-4-amine]", "values": [
      {"measurement": "expression of the maturation markers Nefh and Stx1a", "setting": "[2]", "value": "robust increased expression"},
      {"measurement": "synchronicity of the neuronal network (synchronous firing rate)", "setting": "[3]", "value": "significant changes"}
    ]}
  ]
}
